Molecular target: T1, human 11β-HSD1 (Homo sapiens, UniProt P28845)
T1 construct: expressed in transfected cells; host or cells: CHO cells (microsomes isolated from them)
Experiment: Inhibition of microsomal preparation of 11β-HSD1 (SPA, [3H]cortisone to [3H]cortisol), Biological Test Example 1
Format: biochemical
Conditions: microsomes from CHO cells overexpressing human 11β-HSD1; for Average % inhibition at 100 nM / inhibition at 0.1 µM: 100 nM compound; for Average % inhibition at 100 nM: 0.1 µM; for IC50: read-out: IC50 Range
Description: The inhibition of microsomal preparation of 11β-HSD1 by compounds of the invention was measured essentially as previously described (K. Solly, S. S. Mundt, H. J. Zokian, G. J. Ding, A. Hermanowski-Vosatka, B. Strulovici, and W. Zheng, High-Throughput Screening of 11-Beta-Hydroxysteroid Dehydrogenase Type 1 in Scintillation Proximity Assay Format. Assay Drug Dev Technol 3 (2005) 377-384). All reactions were carried out at room temperature in 96 well clear flexible PET Microbeta plates (PerkinElmer). The assay begins by dispensing 49 p. 1 of substrate solution (50 mM HEPES, pH 7.4, 100 mM KCl, 5 mM NaCl, 2 mM MgCl2, 2 mM NADPH and 160 nM [^3H]cortisone (1 Ci/mmol)) and mixing in 1 μL of the test compounds in DMSO previously diluted in half-log increments (8 points) starting at 0.1 mM. After a 10 minute pre-incubation, 50 μL of enzyme solution containing microsomes isolated from CHO cells overexpressing human 11β-HSD1 (10-20 μg/ml of total protein) was added, and the plates were incubated for 90 minutes at room temperature. The reaction was stopped by adding 50 μl of the SPA beads suspension containing 10 μM 18β-glycyrrhetinic acid, 5 mg/ml protein A coated YSi SPA beads (GE Healthcare) and 3.3 μg/ml of anti-cortisol antibody (East Coast Biologics) in Superblock buffer (Bio-Rad). The plates were shaken for 120 minutes at room temperature, and the SPA signal corresponding to [^3H]cortisol was measured on a Microbeta plate reader.

T1 sequence (P28845 whole entry): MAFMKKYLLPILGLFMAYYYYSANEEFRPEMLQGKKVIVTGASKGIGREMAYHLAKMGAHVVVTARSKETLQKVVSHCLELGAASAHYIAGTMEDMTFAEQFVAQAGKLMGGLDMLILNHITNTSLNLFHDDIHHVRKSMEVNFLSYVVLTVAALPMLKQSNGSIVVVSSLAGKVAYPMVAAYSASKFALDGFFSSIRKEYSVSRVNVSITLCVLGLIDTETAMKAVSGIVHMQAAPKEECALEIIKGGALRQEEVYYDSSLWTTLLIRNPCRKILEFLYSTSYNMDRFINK

SMILES	Average % inhibition at 100 nM	IC50	inhibition at 0.1 µM
C[C@@H](c1ccc(Br)cc1)N1CC(CCCO)(c2ccc(F)cc2)OC1=O (single isomer, unassigned) [Example 2 Isomer 1]	78.3%	< 100 nM	–
C[C@@H](c1ccc(Br)cc1)N1CC(CCCO)(c2ccc(F)cc2)OC1=O (single isomer, unassigned) [Example 2 Isomer 2]	16.9%	> 100 nM	–
C[C@@H](c1ccc(-c2ccc(F)cc2)cc1)N1CC(CCCO)(c2ccc(F)cc2)OC1=O (single isomer, unassigned) [Example 3 Isomer 1]	91.4%	< 100 nM	–
C[C@@H](c1ccc(-c2ccc(F)cc2)cc1)N1CC(CCCO)(c2ccc(F)cc2)OC1=O (single isomer, unassigned) [Example 3 Isomer 2]	19.1%	> 100 nM	–
C[C@@H](c1ccc(-c2ccn(C)c(=O)c2)cc1)N1C[C@](CC(C)(C)O)(c2ccccc2)OC1=O (single isomer, unassigned) [Example 5 Isomer 1]	–	< 100 nM	51.9%
C[C@@H](c1ccc(-c2ccn(C)c(=O)c2)cc1)N1C[C@@](CC(C)(C)O)(c2ccccc2)OC1=O (single isomer, unassigned) [Example 5 Isomer 2]	–	> 100 nM	3.4%
C[C@@H](c1ccc(-c2ccn(C)c(=O)c2)cc1)N1C[C@](CCC(C)(C)O)(c2ccccc2)OC1=O (single isomer, unassigned) [Example 6 Isomer 1]	–	> 100 nM	18.4%
C[C@@H](c1ccc(-c2ccn(C)c(=O)c2)cc1)N1C[C@](CCC(C)(C)O)(c2ccccc2)OC1=O (single isomer, unassigned) [Example 6 Isomer 2]	19.8%	> 100 nM	–
Cc1cccc(N2CC(C)(c3ccccc3)OC2=O)c1 (stereo not drawn) [Example 7, 5-Methyl-5-phenyl-3-m-tolyloxazolidin-2-one]	–	> 1000 nM	5.4%

From patent US20110105504A1, “Inhibitors Of 11beta-Hydroxysteroid Dehydrogenase Type 1” (Vitae Pharmaceuticals ,Inc., priority 2008, published 2011)
